According to article PMC6956804, “Potent antibacterial activity of MSI-1 derived from the magainin 2 peptide against drug-resistant bacteria” (Theranostics, 2020):
≈ marks a conversion by molar mass, not a printed value. Peptide text beside a SMILES is read from it.

Legend:
murine spleen cells = assay: Cytotoxicity, MTT; assay type: cell-based; details: 48 h
Description: The cytotoxicity of peptides towards murine spleen cells (obtained from healthy murine with aseptic technique) and other eukaryotic cells (HaCaT, GES-1, human L02, B16F10, A549, H460) were determined by routine MTT method. Cells were incubated with serially diluted peptides (final concentrations: 1.563, 3.125, 6.25, 12.5, 25, 50, 100 and 200 μM) for 48 h.

C57BL/6 mice = assay: Acute toxicity in mice; assay type: in vivo; details: intraperitoneal
Description: C57BL/6 mice (n=6/group) were intraperitoneally injected with MSI-1 (0, 10, 20, 40, 80 and 100 mg/kg/body weight, respectively). Animals were inspected for adverse effects for 30 min, and survival was monitored for 12 h thereafter. The toxicity severity was classified as Malik U et al previously described.

[1] = system: E. coli, Penicillin-, Imipenem- and Ceftazidime- resistant clinical isolates; assay type: cell-based
Description: (§1) Bacterial strains were purchased from the American Type Culture Collection (ATCC). All clinical strains were isolated from human clinical specimens by the Medical Laboratory Center of Zhongda Hospital (Nanjing, Jiangsu, China). Ndm-1, tem-1, ctx-m-1, shv-1 -carrying bacteria were constructed as previously described. The recombinant bacteria carrying drug-resistant genes were prepared in LB nutrient and induced by IPTG (1 mM) for 4 h before text. Other bacterial strains were respectively prepared in MHB and Columbia Blood Agar Base.
(§2) A standard micro-broth serial dilution assay was used to measure MIC of peptides. MIC was obtained by a microplate reader at 600 nm. MBC was determined as previously described.

[2] = system: P. aeruginosa, Penicillin-, Imipenem- and Ceftazidime- resistant clinical isolates; assay type: cell-based
Description: as §1, §2

Helicobacterpylori SS1 = assay type: cell-based; details: Helicobacterpylori SS1
Description: as §1, §2

[3] = system: S. epidermidis, Amoxicillin-, Cephalexin- and Levofloxacin- resistant clinical isolates; assay type: cell-based
Description: as §1, §2

[4] = system: S. pyogenes, Penicillin-, Erythromycin- and Levofloxacin- resistant clinical isolates; assay type: cell-based
Description: as §1, §2

[5] = system: S. aureus, Amoxicillin-, Cephalexin- and Levofloxacin- resistant clinical isolates; assay type: cell-based
Description: as §1, §2

[6] = system: K. pneumonia, Penicillin-, Imipenem- and Ceftazidime- resistant clinical isolates; assay type: cell-based
Description: as §1, §2

[7] = system: S. pneumoniae, Amoxicillin-, Cephalexin- and Levofloxacin- resistant clinical isolates; assay type: cell-based
Description: as §1, §2

[8] = system: E. coli BL21(DE3)-NDM-1 (ndm-1-carrying recombinant E. coli); assay type: cell-based
Description: as §1, §2

[9] = system: MRSA, Methicillin-resistant clinical isolates; assay type: cell-based, Staphylococcus aureus
Description: as §1, §2

CC[C@H](C)[C@H](NC(=O)CN)C(=O)N[C@@H](Cc1c[nH]c2ccccc12)C(=O)N[C@@H](CCCCN)C(=O)N[C@@H](Cc1ccccc1)C(=O)N[C@@H](CC(C)C)C(=O)N[C@@H](CCCCN)C(=O)N[C@@H](CCCCN)C(=O)N[C@@H](C)C(=O)N[C@@H](CCCCN)C(=O)N[C@@H](CCCCN)C(=O)N[C@@H](Cc1ccccc1)C(=O)N[C@@H](Cc1c[nH]c2ccccc12)C(N)=O [MSI-3] (H-GIWKFLKKAKKFW-NH2)
effect on the survival of mouse spleen cells compared with the parent peptide (murine spleen cells): significantly higher | deaths (C57BL/6 mice; 100 mg/kg): some of the mice in the MSI-3-treated group died | adverse effects at approximately 5 min post injection (C57BL/6 mice; dose of peptide above 40 mg/kg, n=6/group): displayed narrowing of the eyes, one mouse was crouching and cuddling, and the other mouse showed convulsions

CC[C@H](C)[C@H](NC(=O)CN)C(=O)NCC(=O)N[C@@H](C)C(=O)N[C@H](C(=O)N[C@@H](CC(C)C)C(=O)N[C@@H](CCCCN)C(=O)N[C@H](C(=O)N[C@@H](CC(C)C)C(=O)N[C@H](C(=O)N[C@H](C(=O)NCC(=O)N[C@@H](CC(C)C)C(=O)N1CCC[C@H]1C(=O)N[C@@H](C)C(=O)N[C@@H](CC(C)C)C(=O)N[C@H](C(=O)N[C@@H](CO)C(=O)N[C@@H](Cc1c[nH]c2ccccc12)C(=O)N[C@H](C(=O)N[C@@H](CCCCN)C(=O)N[C@@H](CCCNC(=N)N)C(=O)N[C@@H](CCCCN)C(=O)N[C@@H](CCCNC(=N)N)C(=O)N[C@@H](CCC(N)=O)C(=O)N[C@@H](CCC(N)=O)C(N)=O)[C@@H](C)CC)[C@@H](C)CC)[C@@H](C)O)[C@@H](C)O)C(C)C)C(C)C [Melittin]
MBC [1]: 8 µg/mL (≈ 2.81 µM) | MIC [1]: 4 µg/mL (≈ 1.41 µM) | MBC [2]: 8 µg/mL (≈ 2.81 µM) | MIC [2]: 4 µg/mL (≈ 1.41 µM) | MBC (Helicobacterpylori SS1): 16 µg/mL (≈ 5.62 µM) | MIC (Helicobacterpylori SS1): 8 µg/mL (≈ 2.81 µM) | MBC [3]: 16 µg/mL (≈ 5.62 µM) | MIC [3]: 4 µg/mL (≈ 1.41 µM) | MBC [4]: 16 µg/mL (≈ 5.62 µM) | MIC [4]: 8 µg/mL (≈ 2.81 µM) | MBC [5]: 32 µg/mL (≈ 11.2 µM) | MIC [5]: 8 µg/mL (≈ 2.81 µM) | MBC [6]: 16 µg/mL (≈ 5.62 µM) | MIC [6]: 8 µg/mL (≈ 2.81 µM) | MBC [7]: 16 µg/mL (≈ 5.62 µM) | MIC [7]: 8 µg/mL (≈ 2.81 µM) | MBC [8]: 8 µg/mL (≈ 2.81 µM) | MIC [8]: 4 µg/mL (≈ 1.41 µM) | MBC [9]: 8 µg/mL (≈ 2.81 µM) | MIC [9]: 4 µg/mL (≈ 1.41 µM)
